Test [1] concerns human normal bronchial epithelial BEAS-2B cells. The experiment in a line: MTS cytotoxicity assay, normal BEAS-2B. It counts as cell-based. As for the experimental part:
(§1) It had better inhibition against lung cancer cell lines than against other cancer cell lines (Table 1). Thus, the next bioactivity-guided separations were conducted according to the cytotoxicities of the fractions against lung cancer cell lines (A-549, NCI-H520, and SPC-A-1), as well as normal BEAS-2B cells and paclitaxel-resistant lung cancer A549/Taxol cells.
(§2) The cytotoxicity activities were evaluated by MTS assay as previously described.
For orientation: Tetrazolium dyes change colour on reduction, which living cells bring about.

For test [2], the system named is human large cell lung carcinoma NCI-H460 cells. In words: MTS cytotoxicity assay, NCI-H460. The format is cell-based. As to conditions: Table 1, NCI-H460. As for the experimental part: as §1, §2
For test [3], the system named is human lung adenocarcinoma A549 cells. The experiment in a line: MTS cytotoxicity assay, A549. The format is cell-based. Here is the method: as §1, §2
For test [4], the system named is human breast cancer MDA-MB-231 cells. The experiment in a line: MTS cytotoxicity assay, MDA-MB-231. The format is cell-based. The settings on record: Table 1, MDA-MB-231. As for the experimental part:
as §1, §2

The test system of test [5] is human cervical cancer HeLa cells. In words: MTS cytotoxicity assay, HeLa. As to conditions: Table 1, HeLa. The format is cell-based. As for the experimental part:
as §1, §2

In test [6] the test system is human hepatoma SMMC-7721 cells. The experiment in a line: MTS cytotoxicity assay, SMMC-7721. It counts as cell-based. The settings on record: Table 1, SMMC-7721.
For test [7], the system named is paclitaxel-resistant A549 (A549/Taxol) cells. The experiment in a line: MTS cytotoxicity assay, A549/Taxol. The format is cell-based, human. As for the experimental part:
as §1, §2

Test [8] deals with human leukemia HL-60 cells. The experiment in a line: MTS cytotoxicity assay, HL-60. The settings on record: Table 1, HL-60. It counts as cell-based. As for the experimental part:
as §1, §2

Test [9] deals with human small cell lung cancer NCI-H446 cells. The experiment in a line: MTS cytotoxicity assay, NCI-H446. It counts as cell-based. As to conditions: Table 1, NCI-H446. As for the experimental part: as §1, §2
The subject of test [10] is human T-cell leukemia MT4 cells. The experiment in a line: MTS cytotoxicity assay, MT4. It counts as cell-based. The settings on record: Table 1, MT4. Here is the method:
as §1, §2

Test [11] concerns human lung adenocarcinoma SPC-A-1 cells. The experiment in a line: MTS cytotoxicity assay, SPC-A-1. It counts as cell-based. Here is the method:
as §1, §2

Test [12] relates to human ovarian carcinoma SK-OV-3 cells. In words: MTS cytotoxicity assay, SK-OV-3. The settings on record: Table 1, SK-OV-3. The format is cell-based. As for the experimental part:
as §1, §2

The test system of test [13] is human neuroblastoma SH-SY5Y cells. The experiment in a line: MTS cytotoxicity assay, SH-SY5Y. As to conditions: Table 1, SH-SY5Y. The format is cell-based. As for the experimental part: as §1, §2
Test [14] relates to human lung squamous cell carcinoma NCI-H520 cells. In words: MTS cytotoxicity assay, NCI-H520. The format is cell-based. As for the experimental part: as §1, §2
The test system of test [15] is human breast cancer MCF-7 cells. In words: MTS cytotoxicity assay, MCF-7. The format is cell-based. The settings on record: Table 1, MCF-7. Here is the method:
as §1, §2

For test [16], the system named is human prostate cancer PC-3 cells. In words: MTS cytotoxicity assay, PC-3. It counts as cell-based. As to conditions: Table 1, PC-3. As for the experimental part: as §1, §2
Test [17] concerns human colon cancer SW-480 cells. In words: MTS cytotoxicity assay, SW480. The settings on record: Table 1, SW480. The format is cell-based. Here is the method: as §1, §2
In test [18] the test system is SPC-A-1, NCI-H520, A549 and A549/Taxol cell lines. In words: MTS cytotoxicity assay, four tested lung cancer cell lines together. It counts as cell-based, human. Here is the method:
Thus, the next bioactivity-guided separations were conducted according to the cytotoxicities of the fractions against lung cancer cell lines (A-549, NCI-H520, and SPC-A-1), as well as normal BEAS-2B cells and paclitaxel-resistant lung cancer A549/Taxol cells.
Isolates 1–6 were evaluated for their cytotoxicities against SPC-A-1, NCI-H520, A549, A549/Taxol, and BEAS-2B cell lines (Table 5).
as §2

[19] abbreviates: Table 5, A549/Taxol, read-out: IC50.
Setting [20] is: Table 5, SPC-A-1, read-out: IC50.
[21] abbreviates: Table 5, NCI-H520, read-out: IC50.
Where [22] appears, read: Homo sapiens, Table 5, BEAS-2B normal cells, read-out: IC50.
The mark [23] stands for this setting: Homo sapiens, A549, Table 5, A549, read-out: IC50.
Setting [24] is: Homo sapiens, A549/Taxol, Table 5, A549/Taxol, read-out: IC50.
The mark [25] stands for this setting: Homo sapiens, SPCA1, Table 5, SPC-A-1, read-out: IC50.
Where [26] appears, read: Homo sapiens, NCI-H520, Table 5, NCI-H520, read-out: IC50.

Molecules are shown by their SMILES. Where two headings read alike, the source gives them in different places. Some results are limits rather than exact numbers.

Experimental findings from PMC8975978, “Bioassay-guided isolation of cytotoxic constituents from the flowers of Aquilaria sinensis” (Natural Products and Bioprospecting, 2022) are described below.

Usually IC50 stands for the concentration that gives 50% inhibition.

As for `N.N.[Cl][Pt][Cl]` [Cisplatin], the IC50 was 9.14 ± 1.41 mg/L in [1] (Table 1, BEAS-2B normal cells); 7.36 ± 0.56 mg/L in [1] (Table 2, BEAS-2B normal cells); above 12 mg/L in test [1] (Table 3, BEAS-2B normal cells); 8.86 ± 1.32 mg/L in test [1] (Table 4, BEAS-2B normal cells); 34.9 ± 1.16 µM in test [1] (Table 5, BEAS-2B normal cells, read-out: IC50); 5.29 ± 0.48 mg/L in [2]. Besides, the IC50 came to 3.83 ± 0.79 mg/L in [3] (Table 1, A549); 4.99 ± 0.08 mg/L in test [3] (Table 2, A-549); 3.02 ± 0.59 mg/L in [3] (Table 3, A549); 2.28 ± 0.57 mg/L in [3] (Table 4, A549); 13.5 ± 0.64 µM in test [3] (Table 5, A549, read-out: IC50); 3.16 ± 0.97 mg/L in test [4]. The IC50 came out at 1.14 ± 0.152 mg/L in [5]; 1.53 ± 0.11 mg/L in test [6]; 4.29 ± 0.26 mg/L in test [7] (Table 2, A549/Taxol); 3.41 ± 0.47 mg/L in [7] (Table 3, A549/Taxol); 4.13 ± 0.86 mg/L in test [7] (Table 4, A549/Taxol); 15 ± 0.93 µM in test [7] (setting [19]). Moreover, the IC50 in test [8] came to 1.97 ± 1.30 mg/L; in test [9] it was 3.78 ± 0.79 mg/L; in test [10], 0.16 ± 0.01 mg/L; in [11] (Table 1, SPC-A-1), 1.76 ± 0.40 mg/L; in test [11] (Table 2, SPC-A-1) it was 3.10 ± 0.13 mg/L; in test [11] (Table 3, SPC-A-1), 3.06 ± 1.07 mg/L. Further, the IC50 was determined as 2.49 ± 0.07 mg/L in test [11] (Table 4, SPC-A-1); 21.4 ± 0.35 µM in test [11] (setting [20]); 3.67 ± 0.97 mg/L in test [12]; 2.85 ± 0.272 mg/L in [13]; 6.69 ± 1.46 mg/L in test [14] (Table 1, NCI-H520); 3.12 ± 0.18 mg/L in [14] (Table 2, NCI-H520). In addition, the IC50 in test [14] (Table 3, NCI-H520) was 3.75 ± 0.52 mg/L; in test [14] (Table 4, NCI-H520), 3.11 ± 0.22 mg/L; in test [14] (setting [21]), 12 ± 0.6 µM; in test [15], 2.00 ± 0.93 mg/L; in test [16], 1.38 ± 0.23 mg/L; in test [17], 2.00 ± 0.52 mg/L.
As to `CC(=O)OC(C)(C)C=CC(=O)C(C)(O)C1C(O)CC2(C)C3CC=C4C(CC(=O)OC4(C)C)C3(C)C(=O)CC12C` (centres unmarked) [Compound 1, aquilarolide A], the IC50 in test [1] (setting [22]) is 17.9 ± 0.3 µM; in [3] (setting [23]), 0.35 ± 0.06 µM; in [7] (setting [24]), 0.2 ± 0.01 µM; in [11] (setting [25]), 0.56 ± 0.02 µM; in test [14] (setting [26]), 0.16 ± 0.01 µM.
Take `CC(=O)OC(C)(C)CCC(=O)[C@](C)(O)[C@H]1[C@H](O)C[C@@]2(C)[C@@H]3CC=C4[C@@H](C=C(O)C(=O)C4(C)C)[C@]3(C)C(=O)C[C@]12C` [Compound 2, 23,24-dihydrocucurbitacin E]: the IC50 in test [1] (setting [22]) is above 40 µM; in [3] (setting [23]), above 40 µM; in [7] (setting [24]), above 40 µM; in test [18] (four tested cancer cell lines taken together (SPC-A-1, NCI-H520, A549, A549/Taxol)), “inactive”; in [11] (setting [25]), above 40 µM; in [14] (setting [26]) it was above 40 µM.
As for `CC(=O)OC(C)(C)/C=C/C(=O)[C@](C)(O)[C@H]1[C@H](O)C[C@@]2(C)[C@@H]3CC=C4[C@@H](C=C(O)C(=O)C4(C)C)[C@]3(C)C(=O)C[C@]12C` [Compound 3, cucurbitacin E], the IC50 was 3.46 ± 0.13 µM in test [1] (setting [22]); at most 0.02 µM in test [3] (setting [23]); 0.02 µM in [3] (Table 5, A549, read-out: IC50); at most 0.02 µM in test [7] (Table 5, A549/Taxol, listed as Cucurbitacin E, read-out: IC50); 0.002 µM in [7] (setting [19]); at most 0.03 µM in [18] (Homo sapiens). In addition, the IC50 was at most 0.02 µM in test [11] (Table 5, SPC-A-1, listed as Cucurbitacin E, read-out: IC50); 0.005 µM in [11] (setting [20]); at most 0.02 µM in [14] (Table 5, NCI-H520, listed as Cucurbitacin E, read-out: IC50); 0.001 µM in test [14] (setting [21]).
Consider `COc1cc(O)c2c(c1)O[C@H](c1ccc(O)cc1)CC2=O` [Compound 5, (−)-(2S)-5,4ʹ-dihydroxy-7-methoxyflavanone], for which the IC50 was above 40 µM in [1] (Homo sapiens, BEAS-2B, Table 5, BEAS-2B normal cells, read-out: IC50); above 40 µM in [3] (Homo sapiens, Table 5, A549, read-out: IC50); above 40 µM in test [7] (setting [24]); above 40 µM in test [11] (setting [25]); above 40 µM in [14] (Homo sapiens, Table 5, NCI-H520, read-out: IC50).
